We go through 14 molecules from patent US20200031820A1, “3-CARBOXYLIC ACID PYRROLES AS NRF2 REGULATORS” (GLSXOSMITHKLINE INTELLECTUAL PROPERTY DEVELOPMENT LIMITED, priority 2016, published 2020).

What is called pEC50 is the EC50 on a negative log10 scale, so that one unit is a factor of ten.

Molecules are shown by their SMILES. pEC50: −log10 of the molar value.

Test [1] relates to NQO1 specific enzyme activity in BEAS-2B cells (marker for NRF2 activation). The experiment in a line: Beas2B NQO1 MTT Assay. Type of test: cell-based. Conditions: Homo sapiens, NQO1 specific activity induction, 48 hours with compound. From the text: NAD(P)H:quinone oxidoreductase 1 (NQO1), also called DT diaphorase, is a homodimeric FAD-containing enzyme that catalyses obligatory NAD(P)H-dependent two-electron reductions of quinones and protects cells against the toxic and neoplastic effects of free radicals and reactive oxygen species arising from one-electron reductions. The transcription of NQO1 is finely regulated by NRF2, and thus NQO1 activity is a good marker for NRF2 activation. On day one, frozen BEAS-2B cells (ATCC) were thawed in a water bath, counted, and re-suspended at a concentration of 250,000 cells/mL. Fifty microliters of cells were plated in 384 well black clear-bottomed plates. Plates were incubated at 37° C., 5% CO2 overnight. On day two, plates were centrifuged and 50 nL of compound or controls were added to the cells. Plates were then incubated at 37° C., 5% CO2 for 48 hours. On day four, medium was aspirated from the plate and crude cell lysates were made by adding 13 uL of 1× Cell Signaling Technologies lysis buffer with 1 Complete, Mini, EDTA-free Protease Inhibitor Tablet (Roche) for each 10 mL of lysis buffer. After lysis plates were incubated for 20 minutes at room temperature. Two microliters of lysate were removed for use in Cell Titer Glo assay (Promega) and MTT cocktail was prepared (Prochaska et. al. 1998) for measurement of NQO1 activity. Fifty microliters of MTT cocktail was added to each well, plate was centrifuged, and analysed on an Envision plate reader (Perkin Elmer) using Absorbance 570 nm label for 30 minutes. Product formation was measured kinetically and the pEC50 of NQO1 specific activity induction was calculated by plotting the change in absorbance (Delta OD/min) versus the log of compound concentration followed by 3-parameter fitting.
EC50s <1 nM (+++++), EC50s 10 nM-1 nM (++++), EC50s 10-100 nM (+++), EC50s 100 nM-1 μM (++), EC50s 1-10 μM (+), EC50s >10 μM (−), or were not determined (ND).

Test [2] has as its target T1, full length NRF2 protein and full length Keap1 protein (Homo sapiens, UniProt Q14145).
T1 construct: full length NRF2 protein and full length Keap1 protein; His
The experiment in a line: NRF2-Keap1 TR-FRET Low Protein Assay. Type of test: binding. Conditions: Keap1 FlagHis, biotin-NRF2. From the text: NRF2-Keap1 TR-FRET Low Protein Assay In the NRF2-Keap1 TR-FRET (time-resolved fluorescence resonance energy transfer) low protein assay, full length NRF2 protein and full length Keap1 protein (Keap1 exists a dimer) are used. The assay detects a compound's ability to displace the binding of Keap1 FlagHis with biotinylated Avi-NRF2 protein. Biotin-NRF2 binds to streptavidin-europium (a component of the detection mix) and Keap1 FlagHis is recognized by anti-Flag APC (allophycocyanin) antibody (also a component of the detection mix). If binding occurs between the two proteins, there will be an energy transfer from the Eu+3 (donor) at 615 nm to the APC (acceptor) at 665 nm. A potential NRF2 inhibitor will cause a reduction in the TR-FRET signal by interfering with the binding of Keap1 to NRF2.
Ten nanoliters of 100× compound dose response curves (serial 3-fold dilutions) in DMSO were stamped using an Echo liquid handling system (Labcyte) into 384-well, low volume, black assay plates (Greiner, #784076), with DMSO in columns 6 and 18. An additional 90 nl DMSO was added to each well, to bring the total volume to 100 nl per well. The top concentration of compound was located in columns 1 and 13, with the serial dilutions going across the row. All reagents were diluted in assay buffer (50 mM Tris, pH 8.0, 5 mM MgCl2, 100 mM NaCl, 0.005% BSA, 1 mM DTT, and 2 mM CHAPS. The BSA, DTT, and CHAPS were added to the assay buffer on the day of assay. Using a Multidrop Combi (Thermo Electron Corporation) equipped with a metal tip dispenser, 5 ul of 1.25 nM Keap1 FlagHis protein was added to all wells of the compound plate, with the exception of the wells in column 18. Wells in column 18 received 5 ul of assay buffer instead. Plates were centrifuged at 500 rpm for 1 minute, covered with a plate lid, and incubated at 37° C. for 2.25 hours. Plates were then removed from the incubator and allowed to cool to RT for 15 minutes. Five microliters of 2.5 nM biotin-NRF2 protein was then added to all wells of the plates and the plates were spun at 500 rpm for 1 minute, followed by incubating at 4° C. for 1.25 hours. The plates were then allowed to warm to RT for 15 minutes, followed by the addition of 10 ul of detection mix (1 nM Streptavidin Eu+ W1024 and 5 ug/ml mouse anti-DYKDDDDK IgG conjugated to SureLight APC antibody; both from Columbia Biosciences) to all wells. Plates were spun at 500 rpm for 1 minute, incubated for 1 hour at RT, and read on an Envision plate reader using a 320 nm excitation filter and 615 nm and 665 nm emission filters. Compound response (% inhibition) and potency (pIC50) were calculated based on the ratio of the two emissions (665 nm/615 nm) and then the transformed data is normalized against controls in the assay (control 1=1% DMSO in the presence of NRF2 and Keap1 protein and control 2=1% DMSO in the presence of only the NRF2 protein). Data analysis was handled using the software package Abase XE (Surrey, United Kingdom). The % inhibition values were calculated from the ratio (transformed) data by the equation:
100−(100*(compound response−average control 2)/(average control 1−average control2)).
For calculation of pIC50s, Abase XE used a four-parameter equation.
IC50s<10 nM (+++++), IC50s 10-100 nM (++++), IC50s 100 nM-1 uM (+++), IC50s 1-10 uM (++). & IC50s 10 uM-100 uM (+), IC50s >100 uM (−), or were not determined (ND).
Background: In TR-FRET formats the signal depends on donor and acceptor labels being close together.

T1 sequence (Q14145 whole entry): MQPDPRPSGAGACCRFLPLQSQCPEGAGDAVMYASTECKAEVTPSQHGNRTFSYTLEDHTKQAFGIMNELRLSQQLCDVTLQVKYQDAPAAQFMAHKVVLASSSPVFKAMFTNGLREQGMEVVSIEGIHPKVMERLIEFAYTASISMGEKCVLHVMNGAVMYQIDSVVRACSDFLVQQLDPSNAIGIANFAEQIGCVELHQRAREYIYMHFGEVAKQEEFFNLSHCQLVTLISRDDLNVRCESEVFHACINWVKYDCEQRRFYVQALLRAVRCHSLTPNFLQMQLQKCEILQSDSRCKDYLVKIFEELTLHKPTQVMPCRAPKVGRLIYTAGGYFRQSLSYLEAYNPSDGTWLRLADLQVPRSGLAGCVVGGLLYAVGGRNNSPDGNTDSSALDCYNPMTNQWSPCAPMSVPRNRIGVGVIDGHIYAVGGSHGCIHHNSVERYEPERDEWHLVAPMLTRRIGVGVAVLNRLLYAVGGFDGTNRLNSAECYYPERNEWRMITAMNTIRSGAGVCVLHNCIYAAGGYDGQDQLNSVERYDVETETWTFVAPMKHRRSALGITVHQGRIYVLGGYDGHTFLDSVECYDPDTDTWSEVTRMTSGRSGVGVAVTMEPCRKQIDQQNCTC

With `C[C@H]1Cc2ccc(C(F)(F)F)cc2S(=O)(=O)N(C2CCc3c2cccc3-n2ccc(C(=O)O)c2C2CC2)C1` (mixture of isomers) [Example 12, 2-Cyclopropyl-1-(1-((S)-4-methyl-1,1-dioxido-8-(trifluoromethyl)-4,5-dihydrobenzo[f][1,2]thiazepin-2(3H)-yl)-2,3-dihydro-1H-inden-4-yl)-1H-pyrrole-3-carboxylic acid], the pEC50 is 6.00 to 7.00 in test [1] and 4.00 to 5.00 in test [2].

Turning to `C[C@H]1Cc2ccc(C(F)(F)F)cc2S(=O)(=O)N(Cc2cccc(-n3ccc(C(=O)O)c3[C@@H]3C[C@H]3c3cn(C)nn3)c2)C1` (racemic) [Example 1, 1-(3-(((S)-4-Methyl-1,1-dioxido-8-(trifluoromethyl)-4,5-dihydrobenzo[f]-[1,2]thiazepin-2(3H)-yl)methyl)phenyl)-2-(trans-2-(1-methyl-1H-1,2,3-triazol-4-yl)cyclopropyl)-1H-pyrrole-3-carboxylic acid], the pEC50 in test [1] and in test [2] was 7.00 to 8.00 each time.

For the molecule `C[C@H]1Cc2cc(C(F)(F)F)ccc2S(=O)(=O)N(Cc2cccc(-n3ccc(C(=O)O)c3[C@@H]3C[C@H]3c3cn(C)nn3)c2)C1` (racemic) [Example 2, 1-(3-(((S)-4-methyl-1,1-dioxido-7-(trifluoromethyl)-4,5-dihydrobenzo[f][1,2]thiazepin-2(3H)-yl)methyl)phenyl)-2-(trans-2-(1-methyl-1H-1,2,3-triazol-4-yl)cyclopropyl)-1H-pyrrole-3-carboxylic acid], the negative-log EC50 (pEC50) in test [1] and in test [2] was 7.00 to 8.00 in each case.

As for `Cc1c(CN2C[C@@H](C)Cc3ccc(C(F)(F)F)cc3S2(=O)=O)cccc1-n1ccc(C(=O)O)c1[C@@H]1C[C@H]1c1cn(C)nn1` (racemic) [Example 10, rac-2-(trans-2-(1-methyl-1H-1,2,3-triazol-4-yl)cyclopropyl)-1-(2-methyl-3-(((S)-4-methyl-1,1-dioxido-8-(trifluoromethyl)-4,5-dihydrobenzo[f][1,2]thiazepin-2(3H)-yl)methyl)phenyl)-1H-pyrrole-3-carboxylic acid], the pEC50 in test [1] and in test [2] was 6.00 to 7.00 throughout.

`Cc1ccc(CN2C[C@@H](C)Cc3ccc(C(F)(F)F)cc3S2(=O)=O)cc1-n1ccc(C(=O)O)c1[C@@H]1C[C@H]1c1cn(C)nn1` (racemic) [Example 11, rac-2-(trans-2-(1-methyl-1H-1,2,3-triazol-4-yl)cyclopropyl)-1-(2-methyl-5-(((S)-4-methyl-1,1-dioxido-8-(trifluoromethyl)-4,5-dihydrobenzo[f][1,2]thiazepin-2(3H)-yl)methyl)phenyl)-1H-pyrrole-3-carboxylic acid]: the pEC50 in test [1] was 6.00 to 7.00; in test [2] it was 5.00 to 6.00.

In the case of `C[C@H](Oc1cccc(-c2cccc(-n3ccc(C(=O)O)c3[C@@H]3C[C@H]3c3cn(C)nn3)c2)c1)C1CCCCC1` (racemic) [Example 13, 1-(3′-((S)-1-Cyclohexylethoxy)-[1,1′-biphenyl]-3-yl)-2-(trans-2-(1-methyl-1H-1,2,3-triazol-4-yl)cyclopropyl)-1H-pyrrole-3-carboxylic acid], the results for the pEC50 in test [1] and in test [2] were 7.00 to 8.00 and 6.00 to 7.00, respectively.

Turning to `CCC[C@@H]1CCCCN1C(=O)c1cccc(-c2cccc(-n3ccc(C(=O)O)c3[C@@H]3C[C@H]3c3cn(C)nn3)c2)c1` (racemic) [Example 14, 2-(trans-2-(1-methyl-1H-1,2,3-triazol-4-yl)cyclopropyl)-1-(3′-((R)-2-propylpiperidine-1-carbonyl)-[1,1′-biphenyl]-3-yl)-1H-pyrrole-3-carboxylic acid], the pEC50 in test [1] and in test [2] was 7.00 to 8.00 in each case.

Take `CCC[C@@H]1CCCCN1C(=O)c1cccc(-c2cccc(-n3ccc(C(=O)O)c3[C@@H]3C[C@H]3c3cn(C)nn3)c2)c1F` (racemic) [Example 15, 1-(2′-fluoro-3′-((R)-2-propylpiperidine-1-carbonyl)-[1,1′-biphenyl]-3-yl)-2-(trans-2-(1-methyl-1H-1,2,3-triazol-4-yl)cyclopropyl)-1H-pyrrole-3-carboxylic acid]: the pEC50 was 8.00 to 9.00 in test [1] and 7.00 to 8.00 in test [2].

Regarding `Cn1cc([C@@H]2C[C@H]2c2c(C(=O)O)ccn2-c2cccc(CN3Cc4cc(F)ccc4OC(C)(C)C3)c2)nn1` (racemic) [Example 19], the pEC50 in test [1] and in test [2] was 6.00 to 7.00 throughout.

Turning to `Cn1cc([C@@H]2C[C@H]2c2c(C(=O)O)ccn2-c2cccc(CN3Cc4cc(Br)ccc4OC(C)(C)C3)c2)nn1` (racemic) [Example 20], the pEC50 in test [1] and in test [2] was 6.00 to 7.00 throughout.

`Cn1cc([C@@H]2C[C@H]2c2c(C(=O)O)ccn2-c2cccc(CN3Cc4ccccc4CC(C)(C)C3)c2)nn1` (racemic) [Example 21]: the pEC50 in test [1] and in test [2] was 6.00 to 7.00 each time.

Take `CCCC[C@H]1Cc2ccccc2S(=O)(=O)N(Cc2cccc(-n3ccc(C(=O)O)c3[C@@H]3C[C@H]3c3cn(C)nn3)c2)C1` [Example 3, 1-(3-(((S)-4-butyl-1,1-dioxido-4,5-dihydrobenzo[f][1,2]thiazepin-2(3H)-yl)methyl)phenyl)-2-((1R,2R)-2-(1-methyl-1H-1,2,3-triazol-4-yl)cyclopropyl)-1H-pyrrole-3-carboxylic acid]: the pEC50 in test [1] and in test [2] was 7.00 to 8.00 throughout.

For the molecule `CCCC[C@H]1Cc2ccc(C(F)(F)F)cc2S(=O)(=O)N(Cc2cccc(-n3ccc(C(=O)O)c3[C@@H]3C[C@H]3c3cn(C)nn3)c2)C1` [Example 6, 1-(3-(((S)-4-butyl-1,1-dioxido-8-(trifluoromethyl)-4,5-dihydrobenzo[f][1,2]thiazepin-2(3H)-yl)methyl)phenyl)-2-((1R,2R)-2-(1-methyl-1H-1,2,3-triazol-4-yl)cyclopropyl)-1H-pyrrole-3-carboxylic acid], the pEC50 in test [1] was more than 9.00; in test [2] it was 7.00 to 8.00.

As to `CC[C@H]1Cc2cc(C(F)(F)F)ccc2S(=O)(=O)N(Cc2cccc(-n3ccc(C(=O)O)c3[C@@H]3C[C@H]3c3cn(C)nn3)c2)C1` [Example 7, 1-(3-(((S)-4-ethyl-1,1-dioxido-7-(trifluoromethyl)-4,5-dihydrobenzo[f][1,2]thiazepin-2(3H)-yl)methyl)phenyl)-2-((1R,2R)-2-(1-methyl-1H-1,2,3-triazol-4-yl)cyclopropyl)-1H-pyrrole-3-carboxylic acid], the pEC50 in test [1] is 8.00 to 9.00; in test [2] it was 7.00 to 8.00.
